From publication PMC12040169 (PLOS Biology, 2025)

Assay: in vitro
Conditions: human, hela cells, % viability

First: CC1=C[C@@H](CNS(=O)(=O)c2ccccc2)[C@H](C(C)C)C[C@H]1CC(=O)N1CCCC1 [CBK289054]
Second: CC1=C[C@@H](CNC(=O)c2cccnc2)[C@H](C(C)C)C[C@H]1CC(=O)N1CCCC1 [CBK289055]
The viability at 28.5 h, 10 µM of the first is higher: 122% for the first, 87.7% for the second.

Compared with CN1C(=O)COC[C@@H]1[C@H](O)c1ccc(NC(=O)C2CC2)cc1 [CBK289057], COCC(=O)Nc1ccc([C@@H](O)[C@H]2COCC(=O)N2C)cc1 [CBK289058] is higher in viability at 28.5 h, 10 µM: 83.1% for the first, 106% for the second.

First: O=C(Nc1ccc([C@@H](O)[C@H]2COCC(=O)N2Cc2ccccc2F)cc1)c1cnccn1 [CBK289060]
Second: O=C(Nc1ccc([C@@H](O)[C@H]2COCC(=O)N2Cc2ccc(F)cc2)cc1)c1cccnc1 [CBK289062]
The viability at 28.5 h, 10 µM of the first is lower: 83.2% for the first, 93.3% for the second.

Going from CC(C)NC(=O)N1CCC[C@@H](O)[C@H](NC(=O)c2ccc(OCc3ccccc3)cc2)C1 [CBK289063] to Cc1noc(C)c1COc1ccc(C(=O)N[C@@H]2CN(C(=O)NC(C)C)CCC[C@H]2O)cc1 [CBK289069], the viability at 28.5 h, 10 µM falls from 106% to 93.1%.

Compared with COc1ccc(C(=O)N[C@@H]2CN(Cc3ccc(CO)o3)CCC[C@H]2O)cc1 [CBK289067], CCNC(=O)N1CCC[C@@H](O)[C@H](NC(=O)c2ccc(OCc3c(C)noc3C)cc2)C1 [CBK289068] is lower in viability at 28.5 h, 10 µM: 89.8% for the first, 84.2% for the second.

First: O=C(N[C@@H]1CNCCC[C@H]1O)c1ccc(OCCN2CCCC2)cc1 [CBK289070]
Second: COCCOc1ccc(C(=O)N[C@@H]2CNCCC[C@H]2O)cc1 [CBK289071]
The viability at 28.5 h, 10 µM of the first is higher: 101% for the first, 94.6% for the second.

Compared with CC(=O)Nc1ccc2n(c1=O)C[C@H]1C[C@@H]2CN(C(=O)COc2ccccc2)C1 [CBK289074], O=C(COc1ccccc1)Nc1ccc2n(c1=O)C[C@H]1C[C@@H]2CN(C(=O)c2ccccc2)C1 [CBK289079] is lower in viability at 28.5 h, 10 µM: 89% for the first, 76.6% for the second.

Going from COCCC(=O)N1C[C@@H]2C[C@H](C1)c1ccc(NC(=O)Nc3cccc(F)c3)c(=O)n1C2 [CBK289075] to CC(C)(C)CC(=O)N1C[C@@H]2C[C@H](C1)c1ccc(NC(=O)Nc3ccccc3)c(=O)n1C2 [CBK289176], the viability at 28.5 h, 10 µM rises from 84.6% to 85.8%.

First: O=C(Nc1ccc2n(c1=O)C[C@@H]1CNC[C@H]2C1)c1ccc(F)cc1 [CBK289078]
Second: O=C(Nc1ccc2n(c1=O)C[C@@H]1CNC[C@H]2C1)c1ccncc1 [CBK289177]
The viability at 28.5 h, 10 µM of the first is lower: 98.4% for the first, 107% for the second.

First: O=C(NCc1ccco1)[C@H]1CN2CCC1C[C@@H]2Cn1cc(CO)nn1 (stereo partly shown) [CBK289080]
Second: O=C(NC1CCCCC1)[C@H]1CN2CCC1C[C@@H]2Cn1cc(CO)nn1 (stereo partly shown) [CBK289086]
The viability at 28.5 h, 10 µM of the first is higher: 113% for the first, 102% for the second.

Going from CC(C)(C)c1cn(C[C@H]2CC3CCN2C[C@@H]3C(=O)NCc2ccc(F)cc2)nn1 (stereo partly shown) [CBK289081] to Nc1cccc(-c2cn(C[C@H]3CC4CCN3C[C@@H]4C(=O)NCc3cccnc3)nn2)c1 (stereo partly shown) [CBK289088], the viability at 28.5 h, 10 µM falls from 102% to 84.3%.

First: CNCc1cn(C[C@H]2CC3CCN2C[C@@H]3C(=O)N2CCCC2)nn1 (stereo partly shown) [CBK289087]
Second: CN(C)C(=O)[C@H]1CN2CCC1C[C@@H]2Cn1cc(CCO)nn1 (stereo partly shown) [CBK289089]
The viability at 28.5 h, 10 µM of the first is higher: 104% for the first, 89.9% for the second.

Compared with CC(C)NC(=O)[C@H]1CN2CCC1C[C@@H]2Cn1cc(C2(O)CCCC2)nn1 (stereo partly shown) [CBK289090], O=C(NC1CC1)[C@H]1CN2CCC1C[C@@H]2Cn1cc(C2(O)CCCC2)nn1 (stereo partly shown) [CBK289092] is lower in viability at 28.5 h, 10 µM: 103% for the first, 82.1% for the second.

First: O=C(Nc1ccccc1)[C@H]1CN2CCC1C[C@@H]2Cn1cc(C2(O)CCCC2)nn1 (stereo partly shown) [CBK289091]
Second: Cn1nc(-c2ccccc2)cc1[C@H]1CN2CC[C@H]1C[C@@H]2CNC(=O)N1CCOCC1 [CBK289094]
The viability at 28.5 h, 10 µM of the first is lower: 103% for the first, 113% for the second.

First: Cn1nc(-c2ccccc2)cc1[C@H]1CN2CC[C@H]1C[C@@H]2CNS(C)(=O)=O [CBK289096]
Second: Cn1nc(-c2ccc(F)cc2)cc1[C@H]1CN2CC[C@H]1C[C@@H]2CNS(C)(=O)=O [CBK289109]
The viability at 28.5 h, 10 µM of the first is higher: 99.2% for the first, 98.8% for the second.

Going from CC(C)NC(=O)NC[C@H]1C[C@@H]2CCN1C[C@@H]2c1cc(-c2ccccc2)nn1C [CBK289097] to CC(C)NC(=O)NC[C@H]1C[C@@H]2CCN1C[C@@H]2c1cc(-c2ccc(F)cc2)nn1C [CBK289111], the viability at 28.5 h, 10 µM rises from 84.5% to 88.5%.

First: Cn1nc(-c2cccs2)cc1[C@H]1CN2CC[C@H]1C[C@@H]2CNC(=O)c1ccco1 [CBK289100]
Second: Cc1nc(-c2cccs2)cc([C@H]2CN3CC[C@H]2C[C@@H]3CNC(=O)c2ccco2)n1 [CBK289127]
The viability at 28.5 h, 10 µM of the first is lower: 86.6% for the first, 86.9% for the second.

First: CCCS(=O)(=O)NC[C@H]1C[C@@H]2CCN1C[C@@H]2c1cc(-c2cccs2)nn1C [CBK289101]
Second: Cc1nc(-c2ccccc2)cc([C@H]2CN3CC[C@H]2C[C@@H]3CNS(C)(=O)=O)n1 [CBK289124]
The viability at 28.5 h, 10 µM of the first is lower: 98.4% for the first, 114% for the second.

Going from CC(C)NC(=O)NC[C@H]1C[C@@H]2CCN1C[C@@H]2c1cc(C2CCCCC2)nn1C [CBK289107] to CCNC(=O)NC[C@H]1C[C@@H]2CCN1C[C@@H]2c1cc(C2CCCC2)nc(C)n1 [CBK289122], the viability at 28.5 h, 10 µM falls from 90.8% to 81.6%.

Going from O=C(NC[C@H]1C[C@@H]2CC[N@]1C[C@@H]2CN1CCN(c2ncccn2)CC1)c1ccco1 [CBK289115] to O=C(NC[C@H]1C[C@@H]2CC[N@]1C[C@@H]2CN1CCN(c2ncccn2)CC1)Nc1ccsc1 [CBK289117], the viability at 28.5 h, 10 µM rises from 88.1% to 90.3%.

Going from CC(C)NC(=O)NC[C@H]1C[C@@H]2CC[N@]1C[C@@H]2CN1CCN(c2ncccn2)CC1 [CBK289116] to Cc1nc(-c2ccccc2)cc([C@H]2CN3CC[C@H]2C[C@@H]3CNC(=O)NC(C)C)n1 [CBK289126], the viability at 28.5 h, 10 µM rises from 89.7% to 89.9%.

Compared with CCC(CC)c1cc([C@H]2CN3CC[C@H]2C[C@@H]3CO)nc(-c2ccncc2)n1 [CBK289118], CC(=O)NC[C@H]1C[C@@H]2CCN1C[C@@H]2c1cc(-c2ccco2)nc(C)n1 [CBK289128] is higher in viability at 28.5 h, 10 µM: 100% for the first, 102% for the second.

First: Cc1nc(C2CCCC2)cc([C@H]2CN3CC[C@H]2C[C@@H]3CNS(C)(=O)=O)n1 [CBK289121]
Second: CC(=O)N1CCC(NC[C@H]2C[C@@H]3CCN2C[C@@H]3c2cc(C3CCCC3)nc(C)n2)CC1 [CBK289129]
The viability at 28.5 h, 10 µM of the first is higher: 87.6% for the first, 84.3% for the second.

Compared with CC[C@H]1CN(C(C)=O)CC[C@H]1CC(=O)Nc1nccs1 [CBK289130], CCCNC(=O)C[C@@H]1CCN(C(=O)c2ccnc(Cl)c2)C[C@@H]1CC [CBK289138] is higher in viability at 28.5 h, 10 µM: 97.8% for the first, 99.3% for the second.

Compared with CC[C@H]1CN(C(C)=O)CC[C@H]1CC(=O)NCc1ccc2c(c1)OCO2 [CBK289131], CC[C@H]1CN(C(=O)C2CC2)CC[C@H]1CC(=O)NCc1ccc2c(c1)OCO2 [CBK289133] is higher in viability at 28.5 h, 10 µM: 89.2% for the first, 91.9% for the second.

Going from CC[C@H]1CN(C(=O)C(C)(C)C)CC[C@H]1CC(=O)NCc1cccnc1 [CBK289135] to C=CCNC(=O)C[C@@H]1CCN(C(=O)c2cccnc2)C[C@@H]1CC [CBK289142], the viability at 28.5 h, 10 µM falls from 97.8% to 92.3%.

First: C=CCNC(=O)C[C@@H]1CCN(C(=O)c2ccnc(Cl)c2)C[C@@H]1CC [CBK289136]
Second: CC[C@H]1CN(C(=O)c2ccnc(Cl)c2)CC[C@H]1CC(=O)NCc1ccc2c(c1)OCO2 [CBK289137]
The viability at 28.5 h, 10 µM of the first is lower: 94.3% for the first, 110% for the second.

First: CC[C@H]1CN(S(=O)(=O)c2ccccc2)CC[C@H]1CC(=O)N(C)CC#N [CBK289140]
Second: CC[C@H]1CN(S(C)(=O)=O)CC[C@H]1CC(=O)NCc1ccco1 [CBK289141]
The viability at 28.5 h, 10 µM of the first is higher: 108% for the first, 89.2% for the second.

Compared with CC[C@H]1CN(C(=O)c2cccnc2)CC[C@H]1CC(=O)NCc1ccc(F)cc1 [CBK289143], O=C(O)C[C@@H]1CCN(C(=O)NCc2ccccc2)C[C@@H]1CC1=NCCc2ccccc21 [CBK289161] is higher in viability at 28.5 h, 10 µM: 88.6% for the first, 94.7% for the second.

First: COCc1cc(C[C@H]2CNCC[C@H]2CC(=O)N2CCc3ccccc3C2)no1 [CBK289144]
Second: O=C(C[C@@H]1CCNC[C@@H]1Cc1cc(-c2ccccc2)on1)N1CCN(c2ccccn2)CC1 [CBK289150]
The viability at 28.5 h, 10 µM of the first is higher: 88.4% for the first, 81% for the second.

First: CC(C)NC(=O)C[C@@H]1CCNC[C@@H]1Cc1cc(-c2ccccc2)on1 [CBK289147]
Second: O=C(C[C@@H]1CCNC[C@@H]1Cc1cc(-c2ccccc2)on1)Nc1cccc(O)c1 [CBK289149]
The viability at 28.5 h, 10 µM of the first is lower: 83.7% for the first, 102% for the second.

First: COc1ccc2c(c1)CCN=C2C[C@H]1CN(C(=O)C2CC2)CC[C@H]1CC(=O)O [CBK289154]
Second: COc1ccc2c(c1)CCN=C2C[C@H]1CN(C(=O)C(C)(C)C)CC[C@H]1CC(=O)O [CBK289155]
The viability at 28.5 h, 10 µM of the first is higher: 108% for the first, 92.5% for the second.

First: O=C(O)C[C@@H]1CCN(C(=O)C2CCCCC2)C[C@@H]1CC1=NCCc2ccccc21 [CBK289158]
Second: Cc1ccc2c(c1)C(C[C@H]1CN(C(=O)C3CCCC3)CC[C@H]1CC(=O)O)=NCC2 [CBK289163]
The viability at 28.5 h, 10 µM of the first is higher: 101% for the first, 88.5% for the second.

Compared with CC(=O)N1CC[C@@H](CC(=O)O)[C@@H](CC2=NCCc3ccc(C(C)(C)C)cc32)C1 [CBK289165], O=C(O)C[C@@H]1CCN(C(=O)c2ccco2)C[C@@H]1CC1=NCCc2cc(F)ccc21 [CBK289166] is higher in viability at 28.5 h, 10 µM: 84.4% for the first, 91.1% for the second.

First: Cc1nn(-c2ccccn2)c(C)c1[C@@H]1C=C[C@@H](NS(C)(=O)=O)C1 [CBK289169]
Second: Cc1nn(-c2ccccn2)c(C)c1[C@@H]1C=C[C@@H](NC(=O)CCC(=O)O)C1 [CBK289170]
The viability at 28.5 h, 10 µM of the first is higher: 86.8% for the first, 81.9% for the second.

Going from Cc1nn(CCC#N)c(C)c1[C@@H]1C=C[C@@H](NC(=O)Nc2ccccc2)C1 [CBK289173] to Cc1nn(CCC#N)c(C)c1[C@@H]1C=C[C@@H](NC(=O)NCc2ccccc2)C1 [CBK289174], the viability at 28.5 h, 10 µM rises from 92.9% to 96.8%.

First: COc1ccc(-c2ccc3n(c2=O)C[C@H]2C[C@@H]3CN(C(=O)c3ccncc3)C2)cc1 [CBK289178]
Second: COc1ccc(C(=O)N2C[C@@H]3C[C@H](C2)c2ccc(-c4cccnc4)c(=O)n2C3)cc1 [CBK289182]
The viability at 28.5 h, 10 µM of the first is higher: 90.8% for the first, 86.7% for the second.

First: O=C(O)CCC(=O)N1C[C@@H]2C[C@H](C1)c1ccc(-c3ccc4ccccc4c3)c(=O)n1C2 [CBK289179]
Second: CC(C)NC(=O)N1C[C@@H]2C[C@H](C1)c1ccc(-c3cccnc3)c(=O)n1C2 [CBK289184]
The viability at 28.5 h, 10 µM of the first is higher: 107% for the first, 97.5% for the second.
